# Assays:
# [1] = The drug is tested on Edwardsiella tarda strain: ATCC23685 for biotransformation. The drug concentrations were measured before and after a 12-h incubation by liquid-chromatography-coupled mass spectrometry (LC–MS); details: 2 µM
# [2] = The drug is tested on Bacteroides vulgatus strain: ATCC8482 for biotransformation. The drug concentrations were measured before and after a 12-h incubation by liquid-chromatography-coupled mass spectrometry (LC–MS); details: phocaeicola vulgatus, 2 µM
# [3] = enterocloster bolteae, 12 h, 2 µM
# Description: The drug is tested on Clostridium bolteae strain: ATCCBAA-613 for biotransformation. The drug concentrations were measured before and after a 12-h incubation by liquid-chromatography-coupled mass spectrometry (LC–MS)
# [4] = The drug is tested on Bifidobacterium ruminantium strain: fecal isolate for biotransformation. The drug concentrations were measured before and after a 12-h incubation by liquid-chromatography-coupled mass spectrometry (LC–MS); details: 2 µM
# [5] = bacteroides stercoris, 12 h, 2 µM
# Description: The drug is tested on Bacteroides stercoris strain: ATCC43183 for biotransformation. The drug concentrations were measured before and after a 12-h incubation by liquid-chromatography-coupled mass spectrometry (LC–MS)
# [6] = The drug is tested on Clostridium symbiosum strain: ATCC14940 for biotransformation. The drug concentrations were measured before and after a 12-h incubation by liquid-chromatography-coupled mass spectrometry (LC–MS); details: 2 µM
# [7] = The drug is tested on Eggerthella lenta strain: ATCC25559 for biotransformation. The drug concentrations were measured before and after a 12-h incubation by liquid-chromatography-coupled mass spectrometry (LC–MS); details: 2 µM
# [8] = The drug is tested on Bacteroides ovatus strain: ATCC8483 for biotransformation. The drug concentrations were measured before and after a 12-h incubation by liquid-chromatography-coupled mass spectrometry (LC–MS); details: 2 µM
# [9] = The drug is tested on Bacteroides cellulosilyticus strain: DSM14838 for biotransformation. The drug concentrations were measured before and after a 12-h incubation by liquid-chromatography-coupled mass spectrometry (LC–MS); details: 2 µM
# [10] = anaerostipes sp., 12 h, 2 µM
# Description: The drug is tested on Anaerostipes sp. strain: fecal isolate for biotransformation. The drug concentrations were measured before and after a 12-h incubation by liquid-chromatography-coupled mass spectrometry (LC–MS)
# [11] = The drug is tested on Enterobacter cancerogenus strain: ATCC35316 for biotransformation. The drug concentrations were measured before and after a 12-h incubation by liquid-chromatography-coupled mass spectrometry (LC–MS); details: 2 µM
# [12] = The drug is tested on Ruminococcus gnavus strain: ATCC29149 for biotransformation. The drug concentrations were measured before and after a 12-h incubation by liquid-chromatography-coupled mass spectrometry (LC–MS); details: mediterraneibacter gnavus, 2 µM
# [13] = The drug is tested on Bacteroides pectinophilus strain: ATCC43243 for biotransformation. The drug concentrations were measured before and after a 12-h incubation by liquid-chromatography-coupled mass spectrometry (LC–MS); details: 2 µM
# [14] = The drug is tested on Ruminococcus torques strain: ATCC27756 for biotransformation. The drug concentrations were measured before and after a 12-h incubation by liquid-chromatography-coupled mass spectrometry (LC–MS); type: ADME; set-up: dose 2 uM, timepoint 0 vs 12 hours; details: 2 µM
# [15] = The drug is tested on Clostridium sp. strain: fecal isolate for biotransformation. The drug concentrations were measured before and after a 12-h incubation by liquid-chromatography-coupled mass spectrometry (LC–MS); details: 2 µM
# [16] = The drug is tested on Blautia hansenii strain: DSM20583 for biotransformation. The drug concentrations were measured before and after a 12-h incubation by liquid-chromatography-coupled mass spectrometry (LC–MS); details: 2 µM
# [17] = segatella copri, 12 h, 2 µM
# Description: The drug is tested on Prevotella copri strain: DSM18205 for biotransformation. The drug concentrations were measured before and after a 12-h incubation by liquid-chromatography-coupled mass spectrometry (LC–MS)
# [18] = bacteroides thetaiotaomicron, 12 h, 2 µM
# Description: The drug is tested on Bacteroides thetaiotaomicron strain: 7330 for biotransformation. The drug concentrations were measured before and after a 12-h incubation by liquid-chromatography-coupled mass spectrometry (LC–MS)
# [19] = bacteroides fragilis, 12 h, 2 µM
# Description: The drug is tested on Bacteroides fragilis strain: DS-208 for biotransformation. The drug concentrations were measured before and after a 12-h incubation by liquid-chromatography-coupled mass spectrometry (LC–MS)
# [20] = roseburia intestinalis, 12 h, 2 µM
# Description: The drug is tested on Roseburia intestinalis strain: L1-82 for biotransformation. The drug concentrations were measured before and after a 12-h incubation by liquid-chromatography-coupled mass spectrometry (LC–MS)
Bacterial Biotransformation [1],Bacterial Biotransformation [2],Bacterial Biotransformation [3],Bacterial Biotransformation [4],Bacterial Biotransformation [5],Bacterial Biotransformation [6],Bacterial Biotransformation [7],Bacterial Biotransformation [8],Bacterial Biotransformation [9],Bacterial Biotransformation [10],Bacterial Biotransformation [11],Bacterial Biotransformation [12],Bacterial Biotransformation [13],Bacterial Biotransformation [14],Bacterial Biotransformation [15],Bacterial Biotransformation [16],Bacterial Biotransformation [17],Bacterial Biotransformation [18],Bacterial Biotransformation [19],Bacterial Biotransformation [20],SMILES
Compound metabolized,Compound metabolized,Compound metabolized,Compound metabolized,Compound metabolized,Compound metabolized,Compound metabolized,Compound metabolized,Compound metabolized,Compound metabolized,Compound metabolized,Compound metabolized,Compound metabolized,Compound metabolized,Compound metabolized,Compound metabolized,Compound metabolized,Compound metabolized,Compound metabolized,Compound metabolized,CCN(CC)CCOCCOC(=O)C1(c2ccccc2)CCCC1.O=C(O)CC(O)(CC(=O)O)C(=O)O [CARBETAPENTANE CITRATE]
Compound NOT metabolized,Compound NOT metabolized,Compound NOT metabolized,Compound NOT metabolized,Compound NOT metabolized,Compound NOT metabolized,Compound NOT metabolized,Compound NOT metabolized,Compound NOT metabolized,Compound NOT metabolized,Compound NOT metabolized,Compound NOT metabolized,Compound NOT metabolized,Compound NOT metabolized,Compound NOT metabolized,Compound NOT metabolized,Compound NOT metabolized,Compound NOT metabolized,Compound NOT metabolized,Compound NOT metabolized,CN1CCc2cccc3c2[C@H]1Cc1ccc(O)c(O)c1-3 [APOMORPHINE]
Compound metabolized,Compound metabolized,Compound metabolized,Compound metabolized,Compound metabolized,Compound metabolized,Compound NOT metabolized,Compound metabolized,Compound metabolized,Compound metabolized,Compound metabolized,Compound metabolized,Compound NOT metabolized,Compound metabolized,Compound metabolized,Compound metabolized,Compound metabolized,Compound NOT metabolized,Compound metabolized,Compound metabolized,Cc1nc2n(c(=O)c1CCN1CCC(c3noc4cc(F)ccc34)CC1)CCCC2O (stereo not given) [PALIPERIDONE]
Compound metabolized,Compound metabolized,Compound metabolized,Compound metabolized,Compound metabolized,Compound metabolized,Compound metabolized,Compound metabolized,Compound metabolized,Compound metabolized,Compound metabolized,Compound metabolized,Compound metabolized,Compound metabolized,Compound metabolized,Compound metabolized,Compound metabolized,Compound metabolized,Compound metabolized,Compound metabolized,COc1ccnc(C[S+]([O-])c2nc3ccc(OC(F)F)cc3[nH]2)c1OC (stereo not given) [PANTOPRAZOLE]
Compound metabolized,Compound metabolized,Compound metabolized,Compound metabolized,Compound metabolized,Compound metabolized,Compound metabolized,Compound metabolized,Compound metabolized,Compound metabolized,Compound metabolized,Compound metabolized,Compound metabolized,Compound metabolized,Compound metabolized,Compound metabolized,Compound metabolized,Compound metabolized,Compound metabolized,Compound metabolized,COc1c(C)c2c(c(O)c1C/C=C(\C)CCC(=O)OCCN1CCOCC1)C(=O)OC2 [MYCOPHENOLATE MOFETIL]
Compound NOT metabolized,Compound metabolized,Compound NOT metabolized,Compound metabolized,Compound NOT metabolized,Compound metabolized,Compound metabolized,Compound NOT metabolized,Compound metabolized,Compound NOT metabolized,Compound NOT metabolized,Compound metabolized,Compound metabolized,Compound metabolized,Compound metabolized,Compound metabolized,Compound metabolized,Compound NOT metabolized,Compound metabolized,Compound metabolized,CNC(=C[N+](=O)[O-])NCCSCc1ccc(CN(C)C)o1 [RANITIDINE]
Compound metabolized,Compound metabolized,Compound metabolized,Compound metabolized,Compound metabolized,Compound metabolized,Compound metabolized,Compound metabolized,Compound metabolized,Compound metabolized,Compound metabolized,Compound metabolized,Compound metabolized,Compound metabolized,Compound metabolized,Compound metabolized,Compound metabolized,Compound metabolized,Compound metabolized,Compound metabolized,CC[C@H](C)C(=O)O[C@H]1CCC=C2C=C[C@H](C)[C@H](CC[C@@H]3C[C@@H](O)CC(=O)O3)[C@H]21 [MEVASTATIN]
Compound metabolized,Compound metabolized,Compound metabolized,Compound metabolized,Compound metabolized,Compound metabolized,Compound metabolized,Compound metabolized,Compound metabolized,Compound metabolized,Compound metabolized,Compound metabolized,Compound metabolized,Compound metabolized,Compound metabolized,Compound metabolized,Compound metabolized,Compound metabolized,Compound metabolized,Compound metabolized,CCN(CC)C(=O)/C(C#N)=C/c1cc(O)c(O)c([N+](=O)[O-])c1 [ENTACAPONE]

# Reference: ChEMBL document CHEMBL5303573, “Mapping human microbiome drug metabolism by gut bacteria and their genes” (Nature, 2019)
